Data reported in patent US12630804B2, “Blood brain barrier model” (UNIVERSITY OF LANCASHIRE, priority 2016, dated 2026).

Test system: blood brain barrier model
Test: Permeability of test/known compounds across the blood brain barrier model (TEER and fluorescence in basolateral compartment)
Assay type: in vitro ADME, human
Details: added to apical side; TEER and appearance in basolateral compartment, 0.5-6 h; aptamers 100 nM cy5-tagged
Procedure: The blood brain barrier model was exposed to a test/known compounds to determine permeability. The final concentration of compound introduced to the apical well was determined previously using a viability assay, and a concentration chosen that minimised toxicity to the BBB cells (<IC50). Test compounds (short DNA oligonucleotide glioma selective aptamers (100 nM) tagged with cy5 (GL21, scrambled) and lipid nanoparticles (NPs) loaded with 0.33 μg/ml docetaxel or 2.87 μg/ml curcumin tagged with rhodamine123 and transferrin ligand) were prepared in house. When the TEER values for the BBB model peaked, 3.33 μg/ml Evans Blue Dye (EBD) was added to the apical side of the BBB model to determine if the barrier formed was intact. The test and control compounds were introduced to the well and time dependent TEER measurements were taken along with fluorescent measurements of samples at time points between 0.5-6 h from the basolateral side of the well for determination of appearance of the fluorescent tagged compounds. […] The activity was calculated as % fluorescence relative to the stock concentration of the NPs and then plotted
The blood brain barrier model was exposed to a test compound and the permeability of the barrier to said test compound was measured and compared to the permeability of the blood brain barrier model to known compounds. […]

- permeation across blood brain barrier model: no permeability
SMILES: Cc1cc(-c2ccc(N=Nc3ccc4c(S(=O)(=O)[O-])cc(S(=O)(=O)[O-])c(N)c4c3O)c(C)c2)ccc1N=Nc1ccc2c(S(=O)(=O)[O-])cc(S(=O)(=O)[O-])c(N)c2c1O.[Na+].[Na+].[Na+].[Na+] [Evan's blue, Evan's Blue]
